Test results from article PMC6272185 (Molecules, 2015).
Converted amounts (≈) assume the structure as drawn. Read-outs that look alike come from different tables or passages of the source.

Columns and labels:
[1] = test system: NO production by LPS-stimulated RAW 264.7 macrophages; experiment: Inhibition of NO production by LPS-stimulated macrophages (Griess); type: cell-based, murine; conditions: mean ± SD, n = 3
[2] = test system: TNF-α production by LPS-stimulated RAW 264.7 macrophages; experiment: Inhibition of TNF-α production by LPS-stimulated macrophages (ELISA); type: cell-based, murine; conditions: for IC50: Mus musculus, read-out: IC50 TNF-α
[3] = Macrophage cytotoxicity, LDH release assay; type: cell-based, murine; conditions: mouse, RAW 264.7 macrophages stimulated with LPS; LPS-stimulated RAW 264.7, LDH release; mean ± SD, n = 3
Experimental: (§5) Cytotoxic effects of chalcone samples on RAW 264.7 cell viability in cultures stimulated with LPS were determined using the LDH (lactate dehydrogenase) release assay as previously described [58]. Cytoplasmic enzyme LDH release into cell culture supernatants was detected using a commercial LDH kit (Doles, GO, Brazil). Cell death was expressed as percentage of LDH release, which was calculated using the following formula: percentage of LDH release = 100 × (test LDH release − spontaneous release)/(maximum release − spontaneous release). The maximum release was determined following dissolution of cell monolayers using 1% (vol/vol) Triton X-100. The spontaneous release was determined in supernatants from cultures incubated in the presence of LPS and DMSO, used as a solvent for chalcone samples.

RAW 264.7 macrophages = experiment: Macrophage cytotoxicity, LDH release assay; type: cell-based, murine; conditions: LDH release
Experimental: as §5

M. bovis BCG = experiment: microbe, parasite or virus in culture; type: cell-based, Mycobacterium bovis BCG; conditions: for MIC50 / MIC90: Mycobacterium tuberculosis variant bovis BCG, BCG, 168 h; for MIC50: read-out: MIC50 M. bovis BCG; for MIC90: read-out: MIC90 M. bovis BCG
[4] = test system: IL-1β production by LPS-stimulated RAW 264.7 macrophages; experiment: Inhibition of IL-1β production by LPS-stimulated macrophages (ELISA); type: cell-based, murine; conditions: for IC50: Mus musculus, RAW264.7, 24 h, read-out: IC50 IL-1β
Experimental: (§1) Murine RAW 264.7 macrophage cell line (American Type Culture Collection, Manassas, VA, USA), was cultured in Dulbecco’s modified Eagle’s medium (DMEM-F12) supplemented with 10% Fetal Bovine Serum (FBS) and gentamicin (50 µg/mL) in 5% CO2 atmosphere at 37 °C. For experiments, the cells were seeded in 96-well plates (1 × 10^5 cells/well) and incubated for 24 h at 37 °C. For macrophage stimulation, the cell cultures were treated with LPS (1 µg/mL) and incubated for additional 24 h in the presence or absence of the chalcone samples (samples 1–41) that were used at concentrations of 100, 20, 4 and 0.8 µg/mL. In some experiments, a nitric oxide (NO) inhibitor, L-NMMA (20 μg/mL), was used as a positive control of NO inhibition, and a non-steroidal anti-inflammatory drug indomethacin, known to inhibit production of prostaglandins, was used as a positive control of PGE2 inhibition.
(§2) The frozen culture supernatants samples were thawed and immediately analyzed using commercially available enzyme-linked immunosorbent assay (ELISA) kits to measure TNF-α, IL-1β (BD Biosciences) and PGE2 (R&D Systems, Minneapolis, MN, USA), according to the manufacturer’s instructions. Standard curves for each mediator were generated using reference cytokine concentrations supplied by the manufacturer. Nitric oxide (NO) generation was assessed by the Griess method to measure nitrites, which are stable breakdown NO products.

[5] = test system: PGE2 production by LPS-stimulated RAW 264.7 macrophages; experiment: Inhibition of PGE2 production by LPS-stimulated macrophages (ELISA); type: cell-based, murine; conditions: Mus musculus, RAW264.7, 24 h, read-out: IC50 PGE2
Experimental: as §1, §2

M. tuberculosis H37Rv = experiment: microbe, parasite or virus in culture; type: cell-based, Mycobacterium tuberculosis; conditions: Mycobacterium tuberculosis
M. tuberculosis M299 = experiment: microbe, parasite or virus in culture; type: cell-based, Mycobacterium tuberculosis; conditions: for MIC50 / MIC90: Mycobacterium tuberculosis, M299, 120 h
[6] = test system: M. tuberculosis strain H37Rv in RAW 264.7 macrophages; experiment: Intracellular growth of M. tuberculosis H37Rv in infected macrophages (CFU); type: cell-based, Mycobacterium tuberculosis; conditions: Mycobacterium tuberculosis, H37RV, 96 h, infected RAW 264.7, MOI 1:1, 4 days, Figure 3C
Experimental: (§3) RAW 264.7 macrophages were plated (1 × 10^5 cells/well) in antibiotic-free DMEM-F12 medium supplemented with 10% fetal bovine serum and incubated for 24 h. Prior to infection, mycobacterial suspensions were sonicated for 1 minute to disperse clumps and optical densities were adjusted to 0.1. The macrophage cultures were infected at a MOI of 1:1 (macrophage: bacterium). Phagocytosis was allowed to progress for 3 h. After 3 h, extracellular mycobacteria were removed by washing with PBS 1X and the infected cell monolayers were treated for 4 days with chalcone samples or rifampicin. Macrophage viability was monitored by LDH assay and was over 80% in all experiments. On day 4 after infection, cells were lysed cells with 1% saponin to release intracellular bacteria. Lysate aliquots were diluted 10-fold in PBS, plated in triplicates on 7H10 agar plates and incubated at 37 °C. After 21 days, total CFU were determined.

[7] = test system: RAW 264.7 macrophages infected with M. tuberculosis H37Rv; experiment: Toxicity for infected macrophages, LDH assay; type: cell-based, murine; conditions: Mus musculus, RAW264.7, 96 h; infected RAW 264.7, 4 days treatment; Figure 3D
Experimental: Cytotoxic effects of chalcone samples on RAW 264.7 cell viability in cultures stimulated with LPS were determined using the LDH (lactate dehydrogenase) release assay as previously described. Cytoplasmic enzyme LDH release into cell culture supernatants was detected using a commercial LDH kit (Doles, GO, Brazil). Cell death was expressed as percentage of LDH release, which was calculated using the following formula: percentage of LDH release = 100 × (test LDH release − spontaneous release)/(maximum release − spontaneous release). The maximum release was determined following dissolution of cell monolayers using 1% (vol/vol) Triton X-100. The spontaneous release was determined in supernatants from cultures incubated in the presence of LPS and DMSO, used as a solvent for chalcone samples.
as §3

[8] = test system: iNOS expression in RAW 264.7 macrophages; experiment: iNOS expression by western blot in LPS-stimulated macrophages; type: cell-based, murine; conditions: 20 µg/mL, LPS 1 µg/mL, 24 h
Experimental: (§4) RAW 264.7 macrophages were plated in Petri dishes (2 × 10^7 cells·mL^−1) and incubated for 24 h at 37 °C in 5% CO2 atmosphere. […] The resulted cellular monolayers were washed with PBS 1×, scraped and resuspended in PBS 1×, transferred and centrifuged to obtain cell pellets. The cells were lysed in buffer (10% SDS, 20% glycerol, 5% 2-mercaptoethanol, 2% bromophenol blue and 1 M Tris HCl, pH 6.8, containing protease inhibitors). Protein concentrations were estimated by Bradford method. For western blot analysis, cellular extract samples (60 µg) were submitted to 10% SDS–polyacrylamide gel electrophoresis under […] conditions and transferred to nitrocellulose membranes (Amersham Pharmacia Biotech, Uppsala, Sweden). After blocking with PBS-T (0.5% Tween-20) containing 2.5% (w/v) bovine serum albumin, the membranes were incubated with antibodies against iNOS (1:1000) and COX-2 (1:500) for 1 h at room temperature. After incubation period, the membranes were washed followed by treatment with horseradish peroxidase-conjugated secondary antibody. The resulting membranes were developed using diaminobenzidine/H2O2 as a substrate for peroxidase. In all electrophoresis experiments, a protein standard ladder (Full Range Rainbow-GE Healthcare, Piscataway, NJ, USA) was used to estimate proteins molecular size. Protein bands densitometric analysis was performed using ImageJ software for Windows (NIH, Bethesda, MD, USA). The value for stimulated condition (LPS- treated cells) was set as 1 and other conditions were recalculated correspondingly to allow ratio comparisons.

[9] = test system: COX-2 expression in RAW 264.7 macrophages; experiment: COX-2 expression by western blot in LPS-stimulated macrophages; type: cell-based, murine; conditions: 20 µg/mL, LPS 1 µg/mL, 24 h
Experimental: as §4

[10] = Mus musculus, RAW264.7, 24 h, LPS (1 µg/mL)-stimulated RAW 264.7, 24 h, read-out: IC50 NO
[11] = RAW264.7, LPS (1 µg/mL)-stimulated RAW 264.7, 24 h, mean ± SD, n = 3
[12] = LPS (1 µg/mL)-stimulated RAW 264.7, 24 h, read-out: IC50 NO
[13] = Mus musculus, RAW264.7, 24 h, read-out: IC50 NO, LPS (1 µg/mL)-stimulated RAW 264.7, 24 h
[14] = H37RV, 120 h, read-out: MIC50 M. tuberculosis H37Rv
[15] = Table 5, same values as M. tuberculosis H37Rv in Table 3, read-out: MIC50

Row | Structure (SMILES) | IC50 [1, 10] [µM] | IC50 [2, 11] [µM] | IC50 [3] [µM] | cytotoxicity profile (RAW 264.7 macrophages) | MIC50 (M. bovis BCG) [µM] | MIC90 (M. bovis BCG) [µM] | IC50 [1, 12] [µM] | IC50 [1, 13] [µM] | IC50 [4] [µM] | IC50 [5] [µM] | MIC90 (M. tuberculosis H37Rv; H37RV, 120 h) [µM] | MIC50 (M. tuberculosis H37Rv; [14]) [µM] | MIC50 (M. tuberculosis H37Rv; [15]) [µM] | MIC50 (M. tuberculosis M299) [µM] | MIC90 (M. tuberculosis M299) [µM] | MIC50 [6] [µM] | IC50 [7] [µM] | further results
1 | CN(C)c1ccc(/C=C/C(=O)c2ccc(Br)cc2)cc1 [Chalcone 11] | 41.3 ± 3.5 | > 303 | 132 ± 2.9 | worst cytotoxicity profiles | 67.8 ± 3.8 (≈ 22.4 µg/mL) | 242 ± 2.6 (≈ 79.9 µg/mL) | – | – | – | – | – | – | – | – | – | – | – | –
2 | COc1ccc(/C=C/C(=O)c2ccc(OC)cc2)cc1 [Chalcone 29] | – | > 373 | 93.9 ± 4.9 | worst cytotoxicity profiles | 32.5 ± 5.4 (≈ 8.72 µg/mL) | 339.5 ± 3.2 (≈ 91.1 µg/mL) | 13.1 ± 4.2 | < 21 | – | – | – | – | – | – | – | – | – | –
3 | COc1ccc(C(=O)/C=C/c2ccccc2Cl)cc1 [Chalcone 30] | 23.9 ± 4.8 | > 367 | 100 ± 5.1 | worst cytotoxicity profiles | 37.8 ± 6.4 (≈ 10.3 µg/mL) | 329 ± 3.6 (≈ 89.6 µg/mL) | – | – | – | – | – | – | – | – | – | – | – | –
4 | COc1ccc(C(=O)/C=C/c2ccccc2)cc1 [Chalcone 24] | – | 78.8 ± 6.5 | 245 ± 4.5 | – | 31.5 ± 5.9 (≈ 7.51 µg/mL) | 399 ± 6.9 (≈ 95.1 µg/mL) | 21.3 ± 4.5 | < 21 | 56.6 ± 3.5 | 90 ± 3.4 | 375 ± 6.8 (≈ 89.3 µg/mL) | 25.3 ± 5.2 (≈ 6.03 µg/mL) | 25.3 ± 5.2 (≈ 6.03 µg/mL) | > 420 | > 420 | 42.6 ± 3.1 (≈ 10.2 µg/mL) | 319 ± 4.6 | inhibition of TNF-α ([2]; LPS-stimulated RAW 264.7): strongly inhibit; inhibition of IL-1β ([4]; LPS-stimulated RAW 264.7): potent inhibitors; activity against M299 compared with H37Rv (M. tuberculosis M299): significantly less potent
5 | O=C(/C=C/c1ccccc1)c1ccccc1Cl [Chalcone 31] | – | – | 267 ± 4.5 | – | 90.9 ± 5.5 (≈ 22.1 µg/mL) | 330 ± 4.2 (≈ 80.1 µg/mL) | – | – | > 412 | 10.2 ± 0.5 | – | – | – | – | – | – | – | IC50 ([2]; RAW264.7, 24 h): > 412 µM; inhibition of iNOS expression [8]: almost completely inhibit; abrogation of COX-2 expression [9]: most potent in abrogation
6 | O=C(/C=C/c1ccccc1)c1ccc(Br)cc1 [Chalcone 8] | 46.4 ± 2.3 | 66.9 ± 4.5 | 191 ± 5.2 | – | 13.4 ± 4 (≈ 3.85 µg/mL) | 33.7 ± 4.6 (≈ 9.68 µg/mL) | – | – | – | – | 326 ± 3.3 (≈ 93.6 µg/mL) | 10.5 ± 3.8 (≈ 3.02 µg/mL) | 10.5 ± 3.8 (≈ 3.02 µg/mL) | 10.2 ± 4.9 (≈ 2.93 µg/mL) | 344.7 ± 0.4 (≈ 99 µg/mL) | 13.5 ± 0.6 (≈ 3.88 µg/mL) | 66.1 ± 1.5 | MIC90 M. bovis BCG (M. bovis BCG; culture, 7 days, MTT): 33.7 ± 4.6 µM (≈ 9.68 µg/mL)
